Key:
[1] = test system: ES2 (human ovarian cancer) cells transplanted sc; experiment: Animal study, size of sc ES2 tumor; format: in vivo, Athymic Nu/Nu mice
Description: • Athymic Nu/Nu mice (2-3 months old) were transplanted sc with ES2 (human ovarian cancer) cells. • Five days after the transplant (day one), mice were divided into two groups (H and J) with two animals in each group. • Group H: On days 1-5, and 8-10 mice received daily drug administration of Xanifolia-Y, by i.p. route at dose of 2.5 mg/kg. • Group J mice received no drug-treatment.

OVCA 432 = experiment: MTT assay OVCA 432; format: cell-based; conditions: Homo sapiens, OVCA432; OVCA 432, Serous
Description: Majority of ovarian cancers arise from the surface epithelium of ovary, most of them belong to the histological subtypes of clear cell and serous carcinoma. We obtained 10 more human ovarian carcinoma cell-lines of these histological subtypes for these studies. The inhibition activity exerted by Xanifolia-Y was determined with MTT assay.

[2] = test system: Hey8A cells attached to flasks; experiment: Inhibition of cell adhesion to flasks, Hey8A; format: cell-based, human; conditions: 5 ug/ml, 5 hours
Description: (§1) Methods and Results. ES2 or Hey8A cells were plated in T25 flasks with medium containing 5 ug/ml of Xanifolia-Y. Cultures were incubated for 5 hours. Attached cells were removed from flasks by trypsinization and the amounts were counted. Compare to no drug controls, 86±4% of ES2 cells and 67±8% of Hey8A cells were found attached to flasks under this condition. At 5 ug/ml Xanifolia-Y, over 90% of unattached cells are alive as determined by the trypan Blue exclusion assay and by their ability to re-attach to flasks when plating in medium without Xanifolia-Y. However, with 10 ug/ml Xanifolia-Y, less than 40% of cells attached to flasks and many of them are dead cells.
as §1, with “Results:” for “Results.”

[3] = test system: Angiopoietin 2 (Ang2) in ES2 cells; experiment: Angiopoietin-2 cellular content (Western blot); format: cell-based, human; conditions: low concentration (5, 10 ug/ml), 24 hours
Description: Methods: ES2 (human ovarian carcinoma cells) were grew in RPMI 1640 medium. 4.5 million cells were seeded in a T75 flask and grown for 24 hours before drug-treatment.
Drug-treatment: Cells cultures were treated with 5, 10 and 15 ug/ml (final concentration) of Xanifolia-Y3 [Y3-5, Y3-10, Y3-15]. or DMSO control [D-10]. After 24 hours, cells were suspended in 1 ml of SDS sample buffer (cell-extract). Samples (80 ul/lane) were applied to 10% SDS gel and electrophoresis was conducted with 100 volts for 2 hours. Protein was transferred to a nitrocellulose membrane electrophoretically. The nitrocellulose blot was blocked with 5% non-fat dry milk in PBS. The blot was then incubated with the first antibodies (goat anti-Ang2, SIGMA A0851) and second antibody (donkey anti-goat AP conjugated, Promega V115A). The immuno-bands were developed with BCIP/NBT color development system (Promega S3771).
Drug-treatment: Cells cultures were treated with 5, 10 and 15 ug/ml (final concentration) of Xanifolia-Y3 [Y3-5, Y3-10, Y3-15]. or DMSO control [D-10]. After 24 hours, cells were suspended in 1 ml of SDS sample buffer (cell-extract). Samples (80 ul/lane) were applied to a 10% SDS gel and electrophoresis was conducted with 100 volts for 2 hours. Protein was transferred to a nitrocellulose membrane electrophoretically. The nitrocellulose blot was blocked with 5% non-fat dry milk in PBS. […]

K562 cells membrane = experiment: EM study of membrane structure; format: cell-based, human; conditions: 5 uM, 60 min
From the text: Xanifolia-Y has a potent hemolytic activity in red blood cells (FIG. 27). To study the effect of Xanifolia-Y on membrane structure, the morphology of cell membrane treated with Xanifolia-Y was examined with EM. […] Solvent DMSO and AKOH-Y (a derivative of Xanifolia-Y without the angeloyl group and it has no activity) served as controls. Cells were negative stained with 1% UAc and subsequently examined with EM.

[4] = test system: blood vessels in ES2 (human ovarian cancer) xenograft tumor; experiment: Genesis of blood vessel in xenograft tumor; format: in vivo, Athymic Nu/Nu mice; conditions: i.p. 2.5 mg/kg on days 10-15 and 18-22, H&E sections
Description: Method: Athymic Nu/Nu mice (5-6 weeks old) are divided into two groups (1 and 2) with 5 animals in each group. On day 0, all mice were transplanted intra-peritoneally with one million ES2 (human ovarian cancer) cells. Animals were randomly divided into two groups:
Group 2: Drug-treatment group. On days 10-15 and 18-22, animals received daily drug administration of Xanifolia-Y, by i.p. route at dosage of 2.5 mg/kg.
Animals with high tumor burden were euthanized and solid tumors were taken out from these mice (between 18-27 days). Tumor tissues fixed with formalin at room temperature. The fixed tissues were sectioned and stained with Haematoxylin and eosin (H&E). The red blood cells inside the micro blood vessels were identified under a microscope.

C/C=C(/C)C(=O)O[C@H]1[C@H](OC(=O)/C(C)=C\C)[C@@]2(CO)C(CC1(C)C)C1=CCC3[C@@]4(C)CC[C@H](O[C@@H]5OC(C(=O)O)[C@@H](O)C(O[C@@H]6O[C@@H](CO)C(O)C6O)C5O[C@@H]5OC(CO)[C@H](O)C(O)C5O)C(C)(C)C4CC[C@@]3(C)[C@]1(C)[C@@H](O)[C@H]2O (stereo partly drawn) [Xanifolia-Y, 3-O-[β-D-galactopyranosyl (1→2)]-α-L-arabinofuranosy (1→3)-β-D-glucuronopyranosyl-21,22-O-diangeloyl-3β, 15α, 16α, 21β, 22α, 28-hexahydroxyolean-12-ene]
tumor size smaller than in mice with no drug ([1]; 10 days period): 45%
tumor size ([1]; Group H: i.p. 2.5 mg/kg days 1-5 and 8-10, in 10 days): 10 mm
IC50 (OVCA 432): 4.4 µM
cells attached to flasks, compared to no drug controls [2]: 67±8%
Angiopoietin-2 immuno-band in cell extract [3]: No detectable or minimal immuno-band
membrane morphology (EM) (K562 cells membrane): patches of pits were found in the membrane
blood vessels in tumor sections [4]: more blood vessels were observed in the control Group1 than those in the drug-treated Group 2
blood vessels in tumor sections ([4]; listed as Xanifolia Y): More blood vessels were observed in the control Group 1 than those in the drug-treated Group 2

Source: patent publication US10213451B2, “Methods and compounds for modulating the secretion or expression of adhesion proteins or angiopoietins of cells” (PACIFIC ARROW LIMITED, priority 2004, dated 2019)
